In patent publication US20240425508A1, “COMPOUNDS USEFUL IN PREVENTION AND/OR TREATMENT OF SENESCENT CELL-RELATED PATHOLOGIES AND DISEASES” (ISTITUTI CLINICI SCIENTIFICI MAUGERI SPA SB, priority 2022, published 2024):
Like-named read-outs stand apart in the source and are kept apart here. Each block holds one molecule with its values, some of them ahead of it.

Assays:
recombinant HSP90α = target: T1, recombinant HSP90α (Homo sapiens, UniProt P07900); experiment: HSP90 inhibition activity assay, FITC-geldanamycin competitive binding fluorescence polarization; settings: 1 pM-10 μM, 2 h, FITC-labeled geldanamycin
T1 construct: purchased BPS Bioscience 50293
Method: HSP90 inhibition activity assay. […] Briefly, the compounds were diluted at different concentrations between 1 pM to 10 μM and incubated for 2 h with the enzyme and substrate at RT while stirring.

[1] = test system: primary human fetal lung cells IMR90; type: cell-based
Text: Cell culture and replicative senescence. Fetal pulmonary fibroblasts, IMR90, were provided by the European Collection of Authenticated Cell Culture (ECACC) and grown in a complete medium consisting of Minimum Essential Medium (MEM), 10% Fetal Bovine Serum (FBS), 1% penicillin-streptomycin (antibiotic), 1% L-glutamine. Cells with passages from P15 to P21 were used; cells were considered incrementally senescent from passage P19 to passage P21. […] The cells were fixed in paraformaldehyde 2% and incubated with the substrate, X-gal, in a solution at pH 6, at 37° C., overnight (16 h).
The images were acquired using an optical microscope (Leica) with 5× magnification. The images were analyzed using the ImageJ software, quantifying the colorimetric signal emitted by each cell. The mean signal intensity was then normalized for the total number of cells. Survival curves of the compounds. […] The cells were then counted manually, in triplicate, using disposable burker chambers.
13 compounds including K5, with different structures, were assayed using an in vitro senescence model, that was developed utilizing serial passages of primary human fetal lung cells IMR90. […] Senescence was detected using the “Senescence β-Galactosidase Staining Kit” (#9860S, Cell Signaling Technology, Inc., MA, USA). […]

[2] = Crossing of the blood-brain barrier after administration; settings: in vivo
IMR90 cells = experiment: DAPI staining assay of surviving cells in replicative senescence model; settings: DAPI signal, 0.5 μM, 48 h, FIG. 2B
Method: Following treatment, the cells were seeded in 96mw. The adherent cells were then fixed with 70% ethanol, incubated for 30 min with a 3 μM DAPI solution; the fluorimetric signal was measured using a multiplate reader (Victor Nivo-Perkin Elmer) set to 350/460 nm (Ligasová A, Koberna K. Quantification of fixed adherent cells using a strong enhancer of the fluorescence of DNA dyes. Sci Rep. 2019 Jun. 18; 9(1):8701. doi: 10.1038/s41598-019-45217-9. PMID: 31213648; PMCID: PMC6581942.).
To confirm data obtained by traditional cell counting by a single operator, a quantification method based on […] was also implemented, exploiting the ability of the DAPI to mark cell nuclei. The cells that survived the action of senolytics were fixed and incubated with the fluorescent indicator. The specific signal was measured using the microplate multimode reader, Victor NIVO (PerkinElmer Tech. GmbH, Germany).

[3] = dogs; cited from earlier work
[4] = rats; cited from earlier work

- IC50 (recombinant HSP90α): 0.731 µM
Structure (SMILES): Cc1ccccc1-n1c(=O)n(Cc2ccccc2)c(=O)c2[nH]cnc21 [Compound Ia, 1-benzyl-3-(2-methylphenyl)-2,3,6,7-tetrahydro-1H-purine-2,6-dione]
- reduction of the senescent population ([1]; IMR90 P19-P21, first 48 hours of exposure, FIG. 2A (1 μM)): about 50%
- senolytic action on cells at passages between P19 and P21 ([1]; IMR90 P19-P21 vs P15-P17, 1 μM, 48 h): act selectively and significantly
- crossing of the blood-brain barrier (BBB) [2]: enables the crossing of the blood-brain barrier

Structure (SMILES): CO[C@H]1/C=C\C=C(/C)C(=O)NC2=CC(=O)C(NCCN(C)C)=C(C[C@@H](C)C[C@H](OC)[C@H](O)[C@@H](C)/C=C(\C)[C@@H]1OC(N)=O)C2=O [Compound 17-DMAG, 17-dimethylaminoethylamino-17-demethoxygeldanamycin]
- cytotoxic effects in the cellular model IMR90 (IMR90 cells): cytotoxic effects already at low concentrations and also in early passages
- maximum tolerated dose (MTD) [3]: 8 mg/m^2
- maximum tolerated dose (MTD) [4]: 12 mg/m^2

Structure (SMILES): CC(C)c1cc(-c2n[nH]c(=O)n2-c2ccc3c(ccn3C)c2)c(O)cc1O [Ganetespib]
- cytotoxic effects in the cellular model IMR90 (IMR90 cells): cytotoxic effects already at low concentrations and also in early passages
